Molecules are shown by their SMILES. Starred links: 1 amine or outer side, 2 acyl side, 3 side chain; linkers in the order of their positions; H or OH if unused. Residues, ends and D or L forms follow the SMILES beside them. *: point of attachment. Glutaryl = O=C(CCCC(=O)[*:2])[*:1]; NHPr = CCCN*

91 molecules from a melting point compilation (Tetko et al.; mined from patent text by program, amines drawn as free bases though some values may be those of a salt) can be followed below.

For `Oc1ccc(CCC(CCc2ccc(O)cc2)(c2ccc(O)cc2)c2ccc(O)cc2)cc1`, the melting point worked out at 252 °C.

The molecule `CCCCSCC(=O)c1ccc2c(c1)n(C)c(=O)n2C` showed a melting point of 80 to 81 °C.

As for `CCOCCOc1ccc(OCC(O)CNCCNC(=O)N2CCOCC2)c(Br)c1` (stereo unspecified), the melting point was 98 °C.

Molecule `CCOc1ccc([N+](=O)[O-])c(NC2Cc3ccccc3C2)c1` showed a melting point of 151 °C.

Molecule `c1cc(CN2CCCCC2)cc(OCCCNc2nc3ccccc3[nH]2)c1` displayed a melting point of 146 to 148 °C.

`CC(C)Oc1nc(N)nc2c1ncn2C1CC(N=[N+]=[N-])C(CO)O1` (stereo unspecified) displayed a melting point of 195 to 197 °C.

`Cn1nc(-c2cccc(-n3ncc4cc(C(C)(C)C)cc(F)c4c3=O)c2CO)cc(Nc2cnc([C@H](O)CO)cn2)c1=O` had a melting point of 218 to 224 °C.

The molecule `COC(=O)C(=O)c1ccc(OCCOc2ccc(C)cc2)cc1` returned a melting point of 105 to 107 °C.

In turn, `O=C(CCCCc1ccccc1)Nc1ccc(C(=O)O)cc1` yielded a melting point of 227 to 230 °C.

Regarding `Cc1cscc1NC(=S)Nc1cc(Cl)c(Cl)cc1N`, the melting point fell in the range of 310 to 320 °C.

`CCC=C(C)C(O)C(CC)CC` (stereo unspecified) gave a melting point of 92 to 93 °C.

`CC(=O)N[C@H]1CC[C@H](Nc2nccc(-n3nnc4ccccc43)n2)CC1` had a melting point of 287 to 288 °C.

`O=C1N=C(c2ccccc2OCC2CC2)N=C2N=CN=C12`: the melting point was 259 to 260 °C.

`CSc1ncccc1NC(=O)CCCCCCCCSc1nc2ccccc2s1`: the melting point lay within 107 to 108 °C.

For `C[C@]12CCC(=O)N[C@@H]1CCc1cc(Sc3ccccc3)ccc12`, the melting point lay within 183 to 185 °C.

In the case of `O=C(Nc1cccc(-c2ccnc3c(C(=O)c4cccs4)cnn23)c1)c1ccccn1`, the melting point is 198 to 200 °C.

Regarding `C[C@H](NC(=O)[C@@H](C)NC(=O)[C@@H](N)CC(=O)O)C1CCCC1`, the melting point was in the range of 204 to 205 °C.

As for `Cc1nc(Cl)c([N+](=O)[O-])c(NC(C)C)n1`, the melting point is 77 to 79 °C.

For the molecule `O=C(CCN1CCN(c2ccccc2)CC1)c1ccc2c(c1)Cc1cc(C(=O)CCN3CCN(c4ccccc4)CC3)ccc1O2`, the melting point lay within 206 to 208 °C.

Molecule `Cc1ccc(S(=O)(=O)CCCCCC(C)(C(=O)OC(C)(C)C)C(=O)OC(C)(C)C)cc1` yielded a melting point of 36.5 to 38.5 °C.

`COc1ccccc1N1CCN(C(=S)Nc2nc3ccccc3nc2OC)CC1`: the melting point was in the range of 160 to 162 °C.

Molecule `O=C(CCl)Nc1csc(Br)n1` registered a melting point of 146 to 148 °C.

On to `CC1CC2C3CC(F)C4=CC(=O)C=CC4(C)C3C(=O)CC2(C)C1C(=O)COC(=O)C(C)(C)C` (stereo unspecified), for which the melting point lay in the range of 226 to 227 °C.

As for `COc1ccc(-c2c(Cl)ncn2-c2ccc(S(=O)(=O)NC(C)(C)C)cc2)cc1F`, the melting point was 208 to 210 °C.

`Cc1cc(Cl)c(Cl)cc1NC(=O)C1(C(=O)O)CC1` came in with a melting point of 248 to 251 °C.

As to `O=c1c2cc(I)ccc2nc(Cl)n1-c1ccc(Cl)cc1`, the melting point is 178 to 180 °C.

In turn, `CS(=O)(=O)c1cc(Cl)c2[nH]cc(CC(N)C(=O)O)c2c1` (stereo unspecified) had a melting point of 292 to 294 °C.

In turn, `C=CCOc1cc(-c2cc(=O)c3c(O)cc(O)cc3o2)ccc1OC` showed a melting point of 219 °C.

As to `O=C1CC=C2N1CCN1C(=O)C[C@H]3CCCC[C@]231` (relative stereo), the melting point is 105 to 125 °C.

`NNC(=O)c1ccn2ncnc2c1` yielded a melting point of 244 to 245 °C.

The molecule `Fc1ccc(-c2cccs2)cc1` yielded a melting point of 51 to 52 °C.

The molecule `CCCCCCCCCCC#CC#CCCCCCCCCC(=O)O` showed a melting point of 57 to 58 °C.

As for `CCCn1c(=O)c2[nH]c(C3CC4COCC4C3)nc2n(CCC)c1=O` (stereo unspecified), the melting point was 226 to 230 °C.

`O=C(CCS)N[C@@H](Cc1c[nH]cn1)C(=O)O` gave a melting point of 219 °C.

Molecule `Cc1nnc(CO)n1-c1ccc(Cl)cc1C(=O)c1ccccc1` yielded a melting point of 138 to 142 °C.

Regarding `CCCSc1nc2c(cc1C#N)C(=O)CC(C)(C)C2`, the melting point fell in the range of 100 to 102 °C.

Turning to `COc1cc(NC2CCN(S(=O)(=O)c3ccccc3)CC2)ccc1C(N)=O`, the melting point was in the range of 166 to 168 °C.

The molecule `CCCCCCCCCCCCCCCCOC(=O)c1cccc(N)c1` came in with a melting point of 52 to 53 °C.

`O=C1c2cccc3c4c(cc(c23)C(=O)N1O)COCO4` gave a melting point of 314 to 315 °C.

Molecule `CN(C)C1CCN2CCc3ccccc3C2(c2ccc(F)cc2)C1` (stereo unspecified) came in with a melting point of 159 to 167 °C.

As to `O=C(c1ccc(Cl)cc1)c1ccc2c(c1)C(=O)N(Cc1cccnc1)C2=O`, the melting point lay within 132 to 134 °C.

`CCN(CC)CCOc1ccc(Nc2ncc3c(n2)N(C)C(=O)N(C2CCCCC2)C3)cc1` registered a melting point of 90 to 92 °C.

The molecule `C[C@@H]1CNc2c(cccc2[N+](=O)[O-])[C@H](C)N1` (relative stereo) came in with a melting point of 62 °C.

Molecule `CN(Cc1ccccc1)C1=N/C(=C\c2c[nH]c3ncc(Cl)cc23)C(=O)N1` yielded a melting point of 310 °C.

With `COc1cccc(CC(=O)O)c1OCCCc1cc(OC(C)C)nn1Cc1ccc(C(F)(F)F)cc1Cl`, the melting point lay within 98 to 99 °C.

Turning to `CCCNC(=O)C1CCCN1C(=O)C(C)NC(=O)C(C)NC(=O)CCCC(=O)O` (stereo not drawn) (Glutaryl-Ala-Ala-Pro-NHPr; configuration not given here), the melting point is 131 to 134 °C.

Take `CNC(=O)n1sc(OC(C)C)nc1=O`: the melting point is 95 °C.

With `CCCCCCCNCCCCCO`, the melting point was in the range of 47 to 48 °C.

Turning to `CCOC(=O)c1c(N)nc(C)c(C(=O)CCCCCCCCCCBr)c1-c1cccc([N+](=O)[O-])c1`, the melting point was in the range of 73 to 74 °C.

Take `CCN(CC)CCOc1ccc(C(=O)c2c(-c3ccccc3)oc3ccccc23)cc1`: the melting point was in the range of 125 to 127 °C.

Turning to `Cc1cc(C)nc(-n2cnc(S(=O)(=O)Nc3c(Cl)cccc3Cl)n2)n1`, the melting point was 274 to 275 °C.

`O=C(CCN1CCC(C(O)(c2ccc(F)cc2)c2ccc(F)cc2)CC1)N(c1ccccc1)c1ccccc1` displayed a melting point of 160 to 162 °C.

`O=C1N=c2cccc(OCCN3CCC(Cc4ccccc4)CC3)c2=N1` had a melting point of 153 to 154 °C.

Consider `O=c1scc(-c2ccc(CCO)cc2)s1`, for which the melting point lay within 92 to 94 °C.

`CCC(C(=O)Nc1c(C)cccc1C)N1C(=O)c2ccccc2C1=O` (stereo unspecified) returned a melting point of 195 to 196 °C.

`COc1cccc2c1OC(COS(=O)(=O)c1ccc(C)cc1)CO2` (stereo unspecified) gave a melting point of 66 to 68 °C.

For `O=C1OC(c2ccccc2)N=C1CCCNC(=O)c1ccccc1` (stereo unspecified), the melting point is 135 to 138 °C.

Consider `CC(Cc1cccc(N)c1)NC=O` (stereo unspecified), for which the melting point is 107 to 108 °C.

The molecule `O=C(O)CCCCOc1ccccc1Cl` showed a melting point of 71 to 72 °C.

`O=C1C=C(c2ccc(C(F)(F)F)cc2C(F)(F)F)CO1`: the melting point was 116 to 117 °C.

In turn, `CC(C)(C)P(=O)(CCC(=O)O)CCC(=O)O` registered a melting point of 174 °C.

`Cc1cc(C(=O)CS(C)(=O)=O)cc(C)c1N` showed a melting point of 179 to 180 °C.

The molecule `Cc1nn(C)c(C(=O)N(C)C)c1Nc1ccccc1[N+](=O)[O-]` displayed a melting point of 144 to 146 °C.

The molecule `CC(C)c1cc(NC(=O)C(CS)Cc2ccccc2)cc(C(=O)O)c1` (stereo unspecified) came in with a melting point of 205 to 209 °C.

Turning to `OCCc1ccc2sccc2c1`, the melting point was in the range of 56 to 57 °C.

The molecule `Cc1ccc(Cn2cccc2C(=O)CC(=O)C(=O)O)cc1` came in with a melting point of 179 to 181 °C.

Turning to `CCOC(=O)C=CC(=O)N(CC(C)(C)C)c1sc(Cl)cc1C(=O)c1ccccc1Cl`, the melting point lay within 79 to 81 °C.

On to `COc1ccc(-c2cc(=O)c3c(O)cc(OCC4=COC(C)(C)O4)cc3o2)cc1OC(=O)C(C)(C)C`, for which the melting point fell in the range of 204 to 205 °C.

On to `CCOC(=O)[C@H](Cc1ccc(-c2c(OC)cc(CO)cc2OC)cc1)NC(=O)c1c(F)cccc1Cl`, for which the melting point is 101 to 104 °C.

Molecule `Cc1cccc(Nc2n[nH]c3ncnc(NCc4ccccc4)c23)c1` displayed a melting point of 200 to 201 °C.

The molecule `CN(C(=O)COc1nnc(C(F)(F)F)s1)c1ccccc1` showed a melting point of 54 °C.

On to `CCNC(=S)NCCSCc1[nH]cnc1C`, for which the melting point is 140 to 141 °C.

Regarding `CN1CCC(OC2c3ccccc3CCn3c2nc(-c2ccc(C(=O)OC(C)(C)C)cc2)c3C#N)CC1` (stereo unspecified), the melting point was 95 °C.

Molecule `COC[C@@H](OC)[C@@H](OC)[C@H](OC)[C@H](CN(C)C(=O)c1ccc2n1Cc1ccccc1N(C(=O)c1ccc(C3=CCCCC3)c(C)c1)C2)OC` displayed a melting point of 68 to 83 °C.

`CNC(=O)c1cccc(NC(=O)COc2ccccc2C)c1` showed a melting point of 148 °C.

As to `CCNc1cc(Cl)nc(C#N)c1N`, the melting point turned out to be 150 °C.

As to `CCCCn1cc([N+](=O)[O-])c(=O)c2cnc(-c3ccncc3)nc21`, the melting point lay in the range of 240 to 241 °C.

In turn, `COc1cc(OC)c2c(=O)[nH]c(-c3ccc(OCCO)c(-c4cccc(S(C)=O)c4)n3)nc2c1` (stereo unspecified) gave a melting point of 272 to 273 °C.

As to `CCCCCC(=O)OCC(CCn1cnc2c(=O)[nH]c(N)nc21)COC(=O)CCCCC`, the melting point is 198 °C.

In turn, `COC(=O)CCCCC(C[N+](=O)[O-])SCC(=O)O` (stereo unspecified) gave a melting point of 85 to 91 °C.

Regarding `Cc1cccc(O[C@@H]2CCNC[C@H]2O)c1C` (relative stereo), the melting point fell in the range of 127 to 129 °C.

`CCOC(=O)C=C(c1ccc(Br)s1)c1ccc(Br)s1` showed a melting point of 69 to 70 °C.

`CNC(=S)NCCCCc1c[nH]c(NC(=N)N)n1`: the melting point fell in the range of 179 to 184 °C.

Molecule `COc1cc(CC#N)ccc1OCCOc1ccc(F)cc1` returned a melting point of 126 to 128 °C.

For the molecule `COC(=O)CNc1cccc(C(N)=O)c1`, the melting point was 146 to 147 °C.

`CNc1nc(OC)ccc1Nc1nc(Nc2cc3c(cc2OC)CCN(CC(=O)N(C)C)CC3)ncc1Cl` gave a melting point of 191 to 194 °C.

In turn, `CN1C(=O)C(Cl)=C(C#N)C1=O` came in with a melting point of 141 to 143 °C.

In the case of `CNc1nnc(-c2cc(C(C)(C)C)c(O)c(C(C)(C)C)c2)s1`, the melting point amounted to 208 °C.

Molecule `CCOC(=O)c1ccc(C#CC(O)c2cccc3c2C(C)(C)CCS3)cc1` (stereo unspecified) came in with a melting point of 108 °C.

As to `Cc1ccc(S(=O)(=O)OCCc2c(C)nc3cc(C)ccn3c2=O)cc1`, the melting point worked out at 128 °C.

In turn, `Cc1sc2c(c1CCN1CCC(c3noc4cc(F)ccc34)CC1)CCNC2` gave a melting point of 88 to 90 °C.

A word on the melting point: it is the temperature of the solid-liquid transition.
